Experimental data from US9408393B2, “Bismuth-thiols as antiseptics for agricultural, industrial and other uses” (Microbion Corporation, priority 2010, dated 2016).
Like-named read-outs stand apart in the source and are kept apart here.

Key:
[1] = tested on: S. epidermidis (methicillin-susceptible and methicillin-resistant); assay: Graft infection rat model, quantitative graft culture; type: in vivo; settings: rats, s.c. Dacron graft, explanted at 7 days, 0.1 mg/l BTs, 10 mg/l RIP, 10 mg/l rifampin
Procedure: As summarized in Table 21, implants impregnated with 0.1 μg/ml BisEDT, 10 μg/ml RIP and 10 μg/ml rifampin, alone or combined were implanted s.c. into rats. Physiological solution (1 ml) containing the MS and MR strains at 2×10^7 cfu/ml was inoculated onto the graft surface using a tuberculin syringe. All grafts were explanted at 7 days following implantation and sonicated for 5 minutes in sterile saline solution to remove the adherent bacteria. Quantitation of viable bacteria was obtained by culturing dilutions on blood agar plates. The limit of detection was approximately 10 cfu/cm^2.

[2] = tested on: S. epidermidis S2400-1 biofilm; assay: Biofilm prevention, BisEDT-antibiotic combinations; type: cell-based, Staphylococcus epidermidis; settings: for Δ (0.05 BE), biofilm prevention: 0.05 μg/ml BisEDT
Procedure: (§1) S. epidermidis grown in TSB+2% glucose in polystyrene plates for 48 h at 37° C. Gatifloxacin (GF), clindamycin (CM), minocycline (MC), gentamicin (GM), vancomycin (VM), cefazolin (CZ), nafcillin (NC), and rifampicin (RP). […]

S. epidermidis biofilm = assay: Biofilm prevention concentration (BPC), BisEDT and antibiotics; type: cell-based, Staphylococcus epidermidis; settings: for Change of biofilm prevention concentration (BPC): 0.05 μg/ml BisEDT
Procedure: as §1

MRSA = assay: Combination MIC study, nafcillin or gentamicin + BisEDT, TSB with 2% glucose; type: cell-based, Staphylococcus aureus; settings: for Fold reduction of antibiotic MIC90 by BisEDT: BisEDT 0.2 μg/ml; for FIC: antibiotic combined with BisEDT 0.2 μg/ml
Description: BTs reversed the resistance of all four gentamicin-resistant isolates tested to clinically relevant concentrations [Domenico et al., 2002]. The MICs for these antimicrobial agents was reduced substantially, especially for gentamicin.

S. epidermidis [3] = assay: Broth dilution MIC/MBC, BT-antibiotic combinations; type: cell-based, Staphylococcus epidermidis; settings: for Δ, MIC / Δ (0.05 BE), MIC: 0.05 μg/ml BisEDT; for Δ (0.1 BE), MBC: 0.1 μg/ml BisEDT
Summary of the method: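 Checkerboard broth microdilution per NCCLS in cation-adjusted Mueller-Hinton broth, ~2×10^6 cfu/mL inoculum, BTs and antibiotics at incremental concentrations, 24 h at 37°C; growth read as A630, viable counts by plating on nutrient agar. FICI/FBCI computed; synergy ≤0.5 (or ≥4-fold antibiotic drop), no interaction >0.5-4, antagonism >4.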

MRSA clinical isolates [4] = settings: cited from earlier work
MRSA clinical isolates [5] = assay: Broth dilution MIC in BHIG/X medium with subMIC BisEDT; type: cell-based, Staphylococcus aureus; settings: 12 MRSA clinical isolates, BHIG/X, mean ± SD
Procedure: (§2) Broth dilution antimicrobial susceptibility studies were performed against 12 MRSA strains using several antibiotics combined with subMIC levels of BisEDT (Table 18). Both the biofilm-prevention concentration (BPC) and the minimum inhibitory concentration (MIC) were determined in a special biofilm culture medium (BHIG/X). […] These strains were already sensitive to vancomycin, but were made considerably moreso in the presence of subMIC BisEDT.
In this particular study, the data indicated synergy between BisEDT and cefepime (FIC<0.5), with many of the isolates at the breakpoint for sensitivity.

S. epidermidis [6] = assay: Growth inhibition (MIC) and MBC, BisEDT and antibiotics; type: cell-based, Staphylococcus epidermidis
Description: Results are expressed as the mean change in MIC (dilution steps) with increasing BisEDT (n=3). See legend in FIG. 5 for antibiotic definitions.
The MIC change was most pronounced for clindamycin and gentamicin, followed by vancomycin, cefazolin, minocycline, gatifloxacin and nafcillin, with rifampicin unaffected.
Minimum bactericidal concentration (MBC) for most antibiotics tested against S. epidermidis decreased slightly with subMIC BisEDT. […] Clindamycin is a bacteriostatic agent, which explains its lack of bactericidal activity. Cefazolin resistance was reversed with respect to the MBC [Domenico et al., 2003]. These effects were additive.

[7] = tested on: lawn of MRSA (Methicillin-resistant S. aureus); assay: Antibiotic-soaked discs on bacterial lawn with and without BisEDT; type: cell-based, Staphylococcus aureus; settings: antibiotic discs combined with BisEDT 0.05 μg/ml
Procedure: FIGS. 4A and 4B show the subinhibitory BisEDT reversing antibiotic-resistance to several antibiotics. Effects of antibiotics with and without BisEDT (0.05 μg/ml) on a lawn of MRSA (Methicillin-resistant S. aureus) is shown. […] [GM=gentamicin, CZ=cefazolin, FEP=cefepime, IPM=imipenim, SAM=ampicillin/sulbactam, LVX=levofloxacin.

[8] = tested on: MRSA clinical isolates biofilm; assay: Biofilm-prevention concentration (BPC) in BHIG/X medium with subMIC BisEDT; type: cell-based, Staphylococcus aureus; settings: 12 MRSA clinical isolates, mean ± SD
Procedure: as §2

S. aureus = assay: Broth dilution MIC/MBC, BT-antibiotic combinations; type: cell-based, Staphylococcus aureus; settings: for MIC: Staphylococcus aureus
Procedure: Materials & Methods. Susceptibility studies were performed by broth dilution in 96-well tissue culture plates (Nalge Nunc International, Denmark) in accordance with NCCLS protocols (National Committee for Clinical Laboratory Standards. (1997). Methods for Dilution Antimicrobial Susceptibility Tests for Bacteria that Grow Aerobically: Approved Standard M7-A2 and Informational Supplement M100-S10. NCCLS, Wayne, Pa., USA).
Briefly, overnight bacterial cultures were used to prepare 0.5 McFarland standard suspensions, which were further diluted 1:50 (˜2×10^6 cfu/mL) in cation-adjusted Mueller-Hinton broth medium (BBL, Cockeysville, Md., USA). BTs (prepared as described above) and antibiotics were added at incremental concentrations, keeping the final volume constant at 0.2 mL. Cultures were incubated for 24 h at 37° C. and turbidity was assessed by absorption at 630 nm using an ELISA plate reader (Biotek Instruments, Winooski, Vt., USA) according to the manufacturer's recommendations. […] Viable bacterial counts (cfu/mL) were determined by standard plating on nutrient agar.
The checkerboard method was used to assess the activity of antimicrobial combinations. The fractional inhibitory concentration index (FICI) and the fractional bactericidal concentration index (FBCI) were calculated, according to Eliopoulos et al. (Eliopoulos and Moellering, (1996) Antimicrobial combinations. In Antibiotics in Laboratory Medicine (Lorian, V., Ed.), pp. 330-96, Williams and Wilkins, Baltimore, Md., USA). Synergy was defined as an FICI or FBCI index of […], no interaction at >0.5-4 and antagonism at >4 (Odds, F C (2003) Synergy, antagonism, and what the chequerboard puts between them. Journal of Antimicrobial Chemotherapy 52:1). Synergy was also defined conventionally as ≧4-fold decrease in antibiotic concentration.

[9] = methicillin-resistant S. epidermidis
[10] = methicillin-susceptible S. epidermidis
[11] = S. epidermidis ATCC 35984, BisEDT 0.0 μg/ml
[12] = S. epidermidis ATCC 35984, BisEDT 0.05 μg/ml
[13] = S. epidermidis S2400-1, BisEDT 0 μg/ml
[14] = S. epidermidis S2400-1, BisEDT 0.0 μg/ml
[15] = S. epidermidis S2400-1, BisEDT 0.05 μg/ml
[16] = S. epidermidis S2400-1, BisEDT 0.1 μg/ml
[17] = S. aureus ATCC 25923, BE = 0.2 μg/ml BisEDT

Molecule	Quantitative graft culture [1, 9]	Quantitative graft culture [1, 10]	Δ (0.05 BE), biofilm prevention [2]	Biofilm Prevention (antibiotic concentration) ([2]; BisEDT 0 μg/ml) [µg/mL]	Biofilm Prevention (antibiotic concentration) ([2]; BisEDT 0.05 μg/ml) [µg/mL]	Biofilm Prevention (antibiotic concentration) ([2]; BisEDT 0.1 μg/ml) [µg/mL]	Change of biofilm prevention concentration (BPC) (S. epidermidis biofilm)	Fold reduction of antibiotic MIC90 by BisEDT (MRSA)	FIC (MRSA)	Δ, MIC (S. epidermidis [3]; S. epidermidis ATCC 35984)	MIC (S. epidermidis [3]; [11]) [µg/mL]	MIC (S. epidermidis [3]; [12]) [µg/mL]	Δ (0.05 BE), MIC (S. epidermidis [3]; S. epidermidis S2400-1)	Δ (0.1 BE), MBC (S. epidermidis [3]; S. epidermidis S2400-1)	MIC (S. epidermidis [3]; [13]) [µg/mL]	MBC (S. epidermidis [3]; [14]) [µg/mL]	MIC (S. epidermidis [3]; [15]) [µg/mL]	MBC (S. epidermidis [3]; [16]) [µg/mL]	MIC (S. epidermidis [3]; [16]) [µg/mL]	Reduction in MBC with subMIC BisEDT (S. epidermidis [6])	further results
bismuth-1,2-ethanedithiol [BisEDT]	6.2 × 10^2 ± 2.3 × 10^2 cfu/cm^2	5.8 × 10^2 ± 0.9 × 10^2 cfu/cm^2	–	–	–	–	–	–	–	–	–	–	–	–	–	–	–	–	–	–	–
CCOc1ccc2ccccc2c1C(=O)N[C@@H]1C(=O)N2[C@@H]1SC(C)(C)[C@@H]2C(=O)O [Nafcillin]	–	–	0.8	48	64	8	remained unaffected	over 4 fold	0.74	3.2	16.00	5.00	0.89	2.00	171	256	192	128	68	–	–
gentamicin	–	–	3.9	555	144	12	–	over 10 fold	0.6	13.3	213.33	16.00	6.40	6.00	2048	1536	320	256	80	4- to 16 fold	MIC Standards, R (resistance) (MRSA clinical isolates [4]; Standard MIC breakpoint for resistance): ≧16 μg/ml; MIC Standards, S (antibiotic sensitivity) (MRSA clinical isolates [4]; Standard MIC breakpoint for sensitivity): ≦4 μg/ml; MIC (MRSA clinical isolates [5]; BisEDT 0 μg/mL): 81 ± 40 µg/mL; MIC (MRSA clinical isolates [5]; BisEDT 0.025 μg/mL): 60 ± 27 µg/mL; MIC (MRSA clinical isolates [5]; BisEDT 0.05 μg/mL): 58 ± 30 µg/mL; MIC (MRSA clinical isolates [5]; BisEDT 0.1 μg/mL): 48 ± 31 µg/mL; Antibiotic action on MRSA lawn with subMIC BisEDT [7]: enhanced antibiotic action; Synergy, biofilm prevention [2]: borderline; BPC ([8]; BisEDT 0 μg/mL): 81 ± 41 µg/mL; BPC ([8]; BisEDT 0.025 μg/mL): 63 ± 30 µg/mL; BPC ([8]; BisEDT 0.05 μg/mL): 53 ± 31 µg/mL; BPC ([8]; BisEDT 0.1 μg/mL): 33 ± 25 µg/mL; Fold reduction of BPC in presence of subMIC BisEDT (S. epidermidis biofilm; TSB + 2% glucose, 48 h): 4 fold; Synergy, MBC (S. epidermidis [3]; S. epidermidis S2400-1): + (Synergy was also defined conventionally as ≧4-fold decrease in antibiotic concentration); Synergy, MIC (S. epidermidis [3]; S. epidermidis S2400-1): + (Synergy was also defined conventionally as ≧4-fold decrease in antibiotic concentration)
CO[C@H]1/C=C/O[C@@]2(C)Oc3c(C)c(O)c4c(O)c(c(/C=N/N5CCN(C)CC5)c(O)c4c3C2=O)NC(=O)/C(C)=C\C=C\[C@H](C)[C@H](O)[C@@H](C)[C@@H](O)[C@@H](C)[C@H](OC(C)=O)[C@@H]1C [Rifampin]	7.6 × 10^4 ± 2.1 × 10^4 cfu/cm^2	5.9 × 10^3 ± 1.8 × 10^3 cfu/cm^2	0.7	0.03	0.04	0.04	remained unaffected	–	–	1.5	0.021	0.014	0.75	0.43	0.03	0.03	0.04	0.07	0.04	remained largely unaffected	Δ (S. aureus; MRSA S2446-3, BE = 0.2 μg/ml BisEDT): 1.0; Synergy (S. aureus; [17]): + (Synergy was also defined conventionally as ≧4-fold decrease in antibiotic concentration); Δ (S. aureus; [17]): 13.0; MIC (S. aureus; ATCC25923, S. aureus ATCC 25923, antibiotic alone, read-out: MIC): 0.033 µg/mL; MIC (S. aureus; ATCC25923, S. aureus ATCC 25923, with 0.2 μg/ml BisEDT, read-out: MIC + BE): 0.003 µg/mL; MIC (S. aureus; MRSA, MRSA S2446-3, antibiotic alone, read-out: MIC): 2.5 µg/mL; MIC (S. aureus; MRSA, MRSA S2446-3, with 0.2 μg/ml BisEDT, read-out: MIC + BE): 2.5 µg/mL; MIC change (growth inhibition) with BisEDT (S. epidermidis [6]; 0.1 μg/ml (0.5 μM) BisEDT): unaffected
